{"source": "patent US7662776B2", "about": "“Treatment of tumors using short peptides from human chorionic gonadotropin (HCG)” (Biotempt B.V., priority 2005, dated 2010)", "format_in_all_cases": "in vivo, Mice (C57B16)", "key": {"[1]": {"test_system": "Lewis Lung Carcinoma (LLC)", "experiment": "Tumor response in mice bearing LLC tumor during and after treatment with small peptides (Example II)", "conditions": "for tumor growth curves compared with thalidomide: FIG. 1; for tumor growth curves compared with thalidomide / effect on tumor growth: result in words; for tumor volume day 21: average tumor volume on day 21, s.c. LLC, i.p. injection Mon/Wed/Fri; for tumor volume day 21 / mice showing a tumor response: 6 mice per group; for tumor control: mice with complete tumor control for 56 days / mice in group; for Response rate CR: number of mice with complete response; for Response rate CR / Response rate NC / Response rate PR / Response rate PD: of 6; for Response rate NC: number of mice with no change (stable disease); for mice showing a tumor response: response = maximally a growth of 25% within seven days; for effect on tumor growth: i.p. peptide, LLC tumor; for Response rate PR: number of mice with partial remission; for Response rate PD: number of mice with progressive disease", "description": "Animals and tumor model: Mice (C57B16) are transplanted with the syngeneic Lewis Lung Carcinoma (LLC) subcutaneously.\nTreatment modalities: mice are treated with small peptides or control substances beginning on the day of transplantation by i.p. injection. Mice are injected on Monday, Wednesday and Friday, until end of experiment. Experiment ends are based on: tumor size >20 mm, suffering of the animal, weight loss over 20%, ulcerations etc. Otherwise the experiment is terminated eight weeks after start.\nTumor diameter is measured in two directions by caliper measurements and tumor volume (V) is calculated using the formula V=0.4(A^2×B) (where B represents the largest diameter and A the diameter perpendicular to B). The classification of tumor response is: progressive disease (PD), increase of tumor volume (>50%) within seven days (between day 3 and day 10 after begin of treatment); stable disease, tumor volume equal to volume at day 3 in a range of −25% and +25%; partial remission (R), tumor volume −25% to −90%, and complete response CR, (no) measurable tumor at 56 days after start of treatment.\nTumor growth evaluation is terminated when a tumor diameter of 20 mm is reached.\nMice were treated with i.p. injections of peptides 24 hours after implantation of LLC tumor. In all mice receiving PBS tumor developed which reached on average a tumor volume of 1600 mm^3 in 21 days. Approximately tumor diameter was at that time point 16 mm. Thalidomide was used as a positive control."}, "[2]": {"test_system": "Lewis Lung Carcinoma (LLC)", "experiment": "Escalating doses of peptide LQGV in Lewis Lung Carcinoma-bearing mice (Example III)", "conditions": "for PD: number of mice with progressive disease (outgrowth); for TR: number of mice with tumor response (growth delay till day 20); for RR: tumor response rate", "description": "FIG. 3 Tumor volume of Lewis Lung Carcinoma-bearing C57B16 mice treated with escalating doses of peptide LQGV (SEQ ID NO:1). Doses of 1.7, 5, 17, 50 and 170 mg/kg were tested.\nAnimals and tumor model. Mice (C57B16) are transplanted with the syngeneic Lewis Lung Carcinoma (LLC) subcutaneously. Treatment is stared 24 hours after implantation. The number of animals is eight per group to increase the power of this study. As we are starting the treatment when no tumor is palpable the change of error is larger compared to a study with established tumors. Treatment modalities: mice are treated with small peptides or sham control beginning one day after transplantation by i.p. injection. Mice will be injected on Monday, Wednesday and Friday, until end of experiment. Experiment ends based on criteria as tumor size >20 mm, suffering of the animal, weight loss over 20%, ulcerations. Otherwise the experiment will be terminated eight weeks after start.\nTumor diameter is measured in two directions by caliper measurements and tumor volume (V) is calculated using the formula V=0.4(A2×B) (where B represents the largest diameter and A the diameter perpendicular to B). The classification of tumor response is: progressive disease (PD), increase of tumor volume (>25%) within seven days; no change (NC), tumor volume equal to volume at start of treatment in a range of −25% and +25%; partial remission (PR), decrease of tumor volume between −25% and −90%; complete remission (CR), tumor volume less than 10% of initial volume. Tumor growth evaluation is terminated when a tumor diameter of 20 mm is reached.\nTumor volumes were analyzed using non-parametric testing for multiple groups (Kruskal Wallis) and pair wise comparison of the different groups using Mann Whitney.\nTumor response was evaluated slightly differently from proposed. As we start shortly after tumor induction, shrinkage of the tumor compared to before treatment cannot be made. […] So during the experimental time-frame outgrowth (progressive disease, PD) and tumor response (TR, growth delay till day 20) was evaluated. In Table 3 response rates are depicted."}, "[3]": {"experiment": "Toxicity during escalating dose experiment: animal weight, blood markers, leukocyte count (Example III)", "description": "FIG. 5. During the escalating dose experiment toxicity of LQGV (SEQ ID NO:1) was evaluated by evaluation of blood markers for kidney and liver function and leukocyte count.\nFIG. 6. During the escalating dose experiment toxicity of LQGV (SEQ ID NO:1) was evaluated by monitoring of animal weight.\nAssessment of side-effects. Side-effects are monitored on daily basis. a) Weight of the animals is monitored daily. b) Behavior of the animals is observed. c) Animals are checked for possible side effects such as diarrhea.\nDuring the experiment toxicity of the administered peptides was evaluated by monitoring of animal weight (FIG. 6) and by evaluation of blood markers for kidney and liver function and leukocyte count (FIG. 5). […] It is important to compare not only between the groups but also within the groups between individual mice."}, "[4]": {"conditions": "escalating dose experiment, FIG. 5"}}, "note": "Entries after “also recorded” stand apart in the source; their conditions may differ. Peptide text beside a SMILES is read from it.", "data": [{"molecule": "LQG", "values": [{"measurement": "tumor growth curves compared with thalidomide", "setting": "[1]", "result": "comparable to Thalidomide; also recorded: comparable tumor growth curves"}, {"measurement": "tumor volume day 21", "setting": "[1]", "result": 620, "unit": "mm^3"}, {"measurement": "tumor control", "setting": "[1]", "result": "3/6"}, {"measurement": "Response rate CR", "setting": "[1]", "result": 2}, {"measurement": "Response rate NC", "setting": "[1]", "result": 4}, {"measurement": "mice showing a tumor response", "setting": "[1]", "result": "all animals"}, {"measurement": "effect on tumor growth", "setting": "[1]", "result": "tumor growth delay"}]}, {"molecule": "Leu Ala Gly Val (LAGV; Chemically synthesized antitumor peptide LAGV) [4-mer peptide, derivative of LQGV]", "values": [{"measurement": "tumor volume day 21", "setting": "[1]", "result": 1600, "unit": "mm^3"}, {"measurement": "tumor control", "setting": "[1]", "result": "2/6"}, {"measurement": "Response rate CR", "setting": "[1]", "result": 1}, {"measurement": "Response rate NC", "setting": "[1]", "result": 1}, {"measurement": "Response rate PR", "setting": "[1]", "result": 1}, {"measurement": "Response rate PD", "setting": "[1]", "result": 3}]}, {"molecule": "VLPALP (Chemically synthesized antitumor peptide VLPALP) [6-mer peptide]", "values": [{"measurement": "tumor volume day 21", "setting": "[1]", "result": 880, "unit": "mm^3"}, {"measurement": "tumor control", "setting": "[1]", "result": "3/6"}, {"measurement": "Response rate CR", "setting": "[1]", "result": 2}, {"measurement": "Response rate NC", "setting": "[1]", "result": 2}, {"measurement": "Response rate PR", "setting": "[1]", "result": 1}, {"measurement": "Response rate PD", "setting": "[1]", "result": 1}, {"measurement": "mice showing a tumor response", "setting": "[1]", "result": "five out of six"}, {"measurement": "effect on tumor growth", "setting": "[1]", "result": "tumor growth delay"}]}, {"molecule": "LAG", "values": [{"measurement": "tumor volume day 21", "setting": "[1]", "result": 1550, "unit": "mm^3"}, {"measurement": "tumor control", "setting": "[1]", "result": "2/6"}, {"measurement": "Response rate CR", "setting": "[1]", "result": 1}, {"measurement": "Response rate PR", "setting": "[1]", "result": 1}, {"measurement": "Response rate PD", "setting": "[1]", "result": 4}]}, {"molecule": "O=C1CCC(N2C(=O)c3ccccc3C2=O)C(=O)N1", "note": "(stereo not drawn) [Thalidomide, reference compound]", "values": [{"measurement": "effect on tumor growth", "setting": "[2]; positive control group, result in words", "result": "only some tumor growth delay"}, {"measurement": "tumor volume day 21", "setting": "[1]", "result": 340, "unit": "mm^3"}, {"measurement": "tumor control", "setting": "[1]", "result": "3/6"}, {"measurement": "Response rate CR", "setting": "[1]", "result": 2}, {"measurement": "Response rate NC", "setting": "[1]", "result": 3}, {"measurement": "Response rate PR", "setting": "[1]", "result": 1}, {"measurement": "mice showing a tumor response", "setting": "[1]", "result": "all animals"}]}, {"molecule": "Ala Gln Gly Val (AQGV; Chemically synthesized antitumor peptide AQGV) [4-mer peptide, derivative of LQGV]", "values": [{"measurement": "tumor volume day 21", "setting": "[1]", "result": 1030, "unit": "mm^3"}, {"measurement": "tumor control", "setting": "[1]", "result": "2/6"}, {"measurement": "Response rate NC", "setting": "[1]", "result": 1}, {"measurement": "Response rate PR", "setting": "[1]", "result": 2}, {"measurement": "Response rate PD", "setting": "[1]", "result": 3}, {"measurement": "effect on tumor growth", "setting": "[1]", "result": "tumor growth delay"}]}, {"molecule": "CC(C)C[C@H](N)C(=O)N[C@@H](CCC(N)=O)C(=O)NCC(=O)N[C@H](C(=O)O)C(C)C", "note": "[LQGV, Leu Gln Gly Val] (H-LQGV-OH)", "values": [{"measurement": "PD", "setting": "[2]; 1.7 mg/kg i.p.", "result": 9}, {"measurement": "TR", "setting": "[2]; 1.7 mg/kg i.p.", "result": 2}, {"measurement": "RR", "setting": "[2]; 1.7 mg/kg i.p.", "result": 18, "unit": "%"}, {"measurement": "PD", "setting": "[2]; 5 mg/kg i.p.", "result": 4}, {"measurement": "TR", "setting": "[2]; 5 mg/kg i.p.", "result": 7}, {"measurement": "RR", "setting": "[2]; 5 mg/kg i.p.", "result": 64, "unit": "%"}, {"measurement": "PD", "setting": "[2]; 17 mg/kg i.p.", "result": 2}, {"measurement": "TR", "setting": "[2]; 17 mg/kg i.p.", "result": 9}, {"measurement": "RR", "setting": "[2]; 17 mg/kg i.p.", "result": 82, "unit": "%"}, {"measurement": "PD", "setting": "[2]; 50 mg/kg i.p.", "result": 4}, {"measurement": "TR", "setting": "[2]; 50 mg/kg i.p.", "result": 7}, {"measurement": "RR", "setting": "[2]; 50 mg/kg i.p.", "result": 64, "unit": "%"}, {"measurement": "effect on tumor growth", "setting": "[2]; 50 mg/kg, result in words", "result": "strongly inhibited tumor growth"}, {"measurement": "PD", "setting": "[2]; 170 mg/kg i.p.", "result": 4}, {"measurement": "TR", "setting": "[2]; 170 mg/kg i.p.", "result": 7}, {"measurement": "RR", "setting": "[2]; 170 mg/kg i.p.", "result": 64, "unit": "%"}, {"measurement": "effect on tumor growth", "setting": "[2]; dose of 5 mg/kg, result in words", "result": "a delay in tumor growth was observed"}, {"measurement": "delay in tumor growth relative to 5 mg/kg", "setting": "[2]; higher dosages (above 5 mg/kg), result in words", "result": "more pronounced"}, {"measurement": "tumor growth curves compared with thalidomide", "setting": "[1]", "result": "comparable to Thalidomide; also recorded: comparable tumor growth curves"}, {"measurement": "tumor volume day 21", "setting": "[1]", "result": 270, "unit": "mm^3"}, {"measurement": "tumor control", "setting": "[1]", "result": "2/6"}, {"measurement": "Response rate CR", "setting": "[1]", "result": 2}, {"measurement": "Response rate NC", "setting": "[1]", "result": 2}, {"measurement": "Response rate PR", "setting": "[1]", "result": 1}, {"measurement": "Response rate PD", "setting": "[1]", "result": 1}, {"measurement": "mice showing a tumor response", "setting": "[1]", "result": "five out of six"}, {"measurement": "effect on tumor growth", "setting": "[1]", "result": "strong tumor growth delay"}, {"measurement": "effect on animal weight", "setting": "[3]; at all doses (1.7-170 mg/kg), FIG. 6", "result": "no effect on animal weight"}, {"measurement": "effect on leukocyte number", "setting": "[3]; [4]", "result": "no effect on leukocyte number"}, {"measurement": "effect on liver and kidney parameters (blood markers)", "setting": "[3]; [4]", "result": "did not affect the liver and kidney parameters"}]}]}
